Consider 1 molecule from article PMC11997307, “Rat Sarcoma (RAS)-Protein-Targeting Synthetic Cell-Penetrating Peptide as an Anticancer Biomaterial” (Biomaterials Research, 2025).

Holding throughout (assay type): cell-based, human
The subject of assay [1] is phospho-c-RAF and phospho-ERK1/2 in HCT-116 cells. Description: Western blot of RAS-MAPK pathway, HCT-116. As to conditions: HCT-116, 10-250 μM RBP 6 h then 50 ng/ml EGF 10 min. The protocol:
Protein expression was confirmed via Western blot analysis. Briefly, 9 × 10^5 cells were cultured in 100-mm-diameter dishes. When they reached 90% confluence, the cells were starved for 18 h in serum-free medium. […] At the end of the culture period, the cells were lysed for 20 min in cold lysis buffer on ice. Protein concentration was measured using bicinchoninic acid protein assays (Thermo Fisher Scientific, MA, USA). Equal aliquots of protein (40 μg) were boiled for 7 min in 5× sample buffer and separated by 10% SDS–PAGE. Proteins were transferred onto nitrocellulose membranes, followed by washing with Tris-buffered saline (TBS) containing 0.1% Tween 20 (TBST). The membranes were then blocked for 60 min at room temperature with 5% skim milk in TBST. Following the washing procedure, the membranes were incubated with primary antibodies (RAS, phospho-ERK1/2, ERK1/2, phospho-RAF proto-oncogene serine/threonine-protein kinase [phospho-c-RAF; S338], c-RAF [Cell Signaling Technology, Beverly, MA, USA], and GAPDH [Santa Cruz Biotechnology, Inc., Santa Cruz, CA, USA]) diluted in TBST containing 5% skim milk at 4 °C for 18 h. […] The membranes were subsequently washed 3 more times, and protein bands were detected using chemiluminescence reagents (West Pico PLUS, Thermo Fisher Scientific, USA).

The test system of assay [2] is MDA-MB-231 cells. Nature of the assay: Transwell migration assay. The following applies: MDA-MB-231, Transwell 8-μm pore, 200 μM RBP, 6 h. On the procedure: To assess MDA-MB-231 cell migration, 2 methods were employed: a Transwell migration assay and a scratch assay. For the Transwell migration assay, 24-well Transwell plates (8-μm pore size; Costar, Corning Incorporated, Corning, NY, USA) were used to evaluate the invasive potential of the cells. […] Following a 6-h incubation period, nonmigratory cells were carefully removed from the upper surface of the membrane using a PBS-soaked cotton swab. The cells that successfully migrated through the membrane were fixed in methanol for 10 min, and Giemsa staining was used to visualize them. Images were captured using an Olympus DP72 camera at ×100 magnification, and the number of migrated cells in the treated samples was compared with that in the control samples. For the scratch assay, MDA-MB-231 cells (1 × 10^6 cells) were cultured in 6-well plates until they reached confluence. The cells were rinsed with PBS and incubated overnight in serum-free medium. A sterile 200-μl plastic pipette tip was used to create a linear scratch in the center of the monolayer. […] Images were taken immediately after scratching and again after 6, 24, 48, and 72 h of incubation using an Olympus CKX41 inverted microscope at ×20 magnification to evaluate the distance the cells migrated from the wound edge.

Assay [3] concerns MDA-MB-231 cells. Description: Tumor colony forming assay. The following applies: MDA-MB-231, 0, 1, 10, 50, 100 or 200 μM RBP, 5 d, crystal violet. The protocol:
MDA-MB-231 cells were plated in 24-well culture plates at a density of 1 × 10^3 cells per well and incubated for 24 h at 37 °C in a humidified incubator with 5% CO2. […] The cells were fixed with Carnoy’s fixative (75% methanol and 25% acetic acid) for 5 min at room temperature and stained with 0.4% crystal violet for 5 min. After staining, the cells were rinsed with distilled water, and images were taken.

Assay [4] has as its system MDA-MB-231 cells. Description: Cell viability, CCK-8 assay, MDA-MB-231. The following applies: MDA-MB-231 (KRAS G13D), CCK-8, 0-1,000 μM RBP, 24, 48 or 72 h, triplicate. The protocol: The viability of the cells was determined via Cell Counting Kit-8 (CCK-8; Dojindo Laboratories, Kumamoto, Japan) assay. The cells were plated in 96-well culture plates at a density of 5 × 10^3 cells per well and incubated for 24 h at 37 °C in a humidified incubator with 5% CO2. […] After incubation, the medium was replaced with fresh medium containing 10% (v/v) CCK-8 reagent, and the cells were incubated for 2 h. Absorbance was measured at 450 nm using a microplate reader. All experiments were performed in triplicate.

Take `C[C@@H](O)[C@H](NC(=O)[C@H](CO)NC(=O)[C@H](CS)NC(=O)[C@H](CCCCN)NC(=O)CN)C(=O)N[C@@H](CCCNC(=N)N)C(=O)NCC(=O)N[C@@H](CCCNC(=N)N)C(=O)N[C@@H](CCCCN)C(=O)N[C@@H](CS)C(=O)N[C@@H](CS)C(=O)N[C@@H](CCCNC(=N)N)C(=O)N[C@@H](CCCNC(=N)N)C(=O)N[C@@H](CCCCN)C(=O)N[C@@H](CCCCN)C(N)=O` [RBP]: the “activation of RAF (phospho-c-RAF)” value in assay [1] is “effectively inhibited”. In assay [1] (p-ERK/ERK, n = 3), the “phosphorylation of ERK1/2” value was “effectively inhibited”. Also, the “reduction of cell invasion vs NT group” value in the assay with MDA-MB-231 cells [2] is recorded as 70%. Moreover, the colony area entry with MDA-MB-231 cells [3] was “dose-dependent decrease in colony area”. In addition, in the assay on MDA-MB-231 cells [4], the “percentage of viable cells” value is “reduced the percentage of viable KRAS G13D mutant cells in a dose-dependent manner”.
